System: Adenovirus
Experiment: ASTM E1052-20 microbicides against viruses in suspension
Type: cell-based
Conditions: 60 Seconds, remaining virus titre, Control 4.75
Method: Skin, as used herein, is meant to include skin on the arms (including underarms), face, feet, neck, chest, hands, legs, buttocks and scalp (including hair). Sanitizing as used herein means a bacteria log kill of at least 2 and a viral log inactivation of at least 2 (both achieved) in less than 3 minutes after topical application to a surface. Sanitizing precursor means a composition which is a concentrate and suitable to be diluted (or hydrated) with water to produce a sanitizing composition ready for use. Combination, as used herein means, total weight of cetrimonium chloride plus benzalkonium chloride. Skin benefit agent means an ingredient suitable to improve a skin characteristic. Surface as used herein includes skin or the surface of an inanimate object such as a table top, computer monitor, door knob, toilet seat, shopping cart handle or even a clothing garment. Surface is also meant to include the coat of an animal such as the fur on a dog and cat. As used herein, surface preferably means human skin, and especially, skin on the face and hands. The dimonium and trimonium compounds used herein are meant to include salts of the same, especially chlorides and bromides of the same. Cationic surfactant, as used herein, is meant to include polyquaternium materials, like for example, polyquaternium-6. In an embodiment of the invention, the sanitizing composition of the present invention is a home care composition like a laundry spray composition suitable to spray clothing and upholstery requiring sanitizing. The home care composition can also be a sanitizing kitchen or bathroom spray composition. […] The composition of the present invention may optionally comprise skin benefit agents added thereto such as emollients, vitamins and/or derivatives thereof, resorcinols, retinoic acid precursors, colorants, moisturizers or humectants, fragrances, sunscreens, a mixture thereof or the like. The skin benefit ingredients may be water or oil soluble. The sanitizing composition, therefore, is an aqueous based composition with a pH from 3.0 to 8.2, and the composition is water continuous. Viscosity, as used herein, is taken with a Brookfield RV spindle 6 at 20 rpm for 30 seconds at 25° C. unless noted otherwise. […] Antimicrobial benefits mean at least a log kill of 2 in under 3 minutes whereby antimicrobial assessment is measured via test method ASTM-E2783-11 (Reapproved 2016) which sets forth the procedure for measuring antimicrobial activity for water miscible compounds using a time kill procedure. Viral (or virus) inactivation is determined by assessing the impact of microbiocides against viruses as set forth in ASTM-1052-20. […]

SMILES | ADENOVIRUS Inactivation, Log10 TCID 50/0.1 ml (test substance at 0.05%) | ADENOVIRUS Inactivation, Log10 TCID 50/0.1 ml (test substance at 0.1%)
CCCCCCCCCCCCCCCC[n+]1ccccc1.[Cl-] [CPC, cetylpyridinum chloride] | 1.6 Log10 TCID 50/0.1 ml | 1.6 Log10 TCID 50/0.1 ml
CCCCCCCCCCCCCCCC[N+](C)(C)C.[Br-] [CTAB, cetrimonium bromide] | 2.5 Log10 TCID 50/0.1 ml | 1.75 Log10 TCID 50/0.1 ml

From patent publication US20230255868A1, “SANITIZING COMPOSITION” (Conopco, Inc., d/b/a UNILEVER, priority 2020, published 2023)
